Source: patent US20250333431A1, “NEW CRYSTAL FORM OF TRISACCHARIDE” (SHANDONG HENGLU BIOTECH. CO., LTD., priority 2022, published 2025)

How the values were obtained:
[1] = Moisture absorption measurement in a Constant Temperature & Humidity Chamber; assay type: physicochemical; conditions: for Moisture absorption rate, % / Weight gain after moisture absorption: after 5 days; for Weight gain after moisture absorption: about 1 g sample; for Appearance before experiment: before placing in chamber, open glass culture dish
Experimental: On the day before the constant temperature and moisture test, two dry glass culture dishes (without covers) are taken and placed in a Constant Temperature & Humidity Chamber at 25±1° C. and relative humidity of 75±2% for 4 h. The processed dishes are taken out and weighed accurately. The experiment is repeated until the weight is constant, and the data is recorded in Table 3.
Step 2. The raw material LNTII solid amorphous powder and the crystalline form B of LNTII obtained from Example 1 are weighed separately, placed in a glass culture dish without cover with constant weight in Step 1. The culture dish with samples added are placed in a Constant Temperature & Humidity Chamber at 25° C. and relative humidity of 75%. After 5 days, the samples are taken out to observe the appearance changes, weigh, and calculate the moisture absorption. The results are recorded in Table 2 and Table 3, respectively. The results of samples morphology before and after moisture absorption are shown in FIG. 5 and FIG. 6, respectively.
According to the method described herein in Example 9, the crystalline form B of LNTII prepared according to Examples 1-8 is placed in a glass culture dish without cover with constant weight in Step 1. The culture dish with samples added are placed in a Constant Temperature & Humidity Chamber at 25° C. and relative humidity of 75%. After 5 days, the samples are taken out to observe the appearance changes, weigh, and calculate the moisture absorption.

[2] = Stability study in a Constant Temperature & Humidity Chamber (LNTII content by HPLC and appearance); assay type: physicochemical; conditions: for Content, % (At the end of the 1st month): sealed with aluminum compound packing film; for Content, % (At the end of the 1st month) / Appearance (At the end of the 1st month): 1 month; for Appearance (At the end of the 1st month) / Content, % (At the end of the 2nd month) / Appearance (At the end of the 3rd month) / Content, % (At the end of the 3rd month): sealed; for Content, % (At the end of the 2nd month): 2 months; for Content, % (Day 0): LNTII content by HPLC
Experimental: In this invention, high-performance liquid chromatography (HPLC) is used to detect the content of LNTII under the following detection conditions:
Chromatographic column: Asahipak NH2P-504E 4.6 mm×250 mm, 5 μm, mobile phase: acetonitrile: water=65:35, flow rate: 1 mL/min, detector: UV-VIS detector, wavelength: 210 nm, column temperature: 30° C., sample volume: 10 μL, and the running time of 30 min.
An amount of 10 g of raw material before crystallization (i.e. LNTII amorphous powder obtained by spray-drying) and 10 g of crystalline form B of LNTII prepared by the method described herein in Examples 1-8 are weighed respectively, sealed with aluminum compound packing film, and placed in a Constant Temperature & Humidity Chamber under the test conditions of at constant temperature of 40° C. and relative humidity of 75%. Samples are taken at the end of the 1st month, the 2nd month, and the 3rd month to test the content of LNTII and observe its appearance.

[3] = 25° C., relative humidity 75%, Table 4, Examples 1-8
[4] = 40° C., relative humidity 75%, 3 months
[5] = 25° C., relative humidity 75%, Table 3, (weight gain/sample weight) × 100%

| SMILES | Moisture absorption rate, % [1, 3] | Content, % (At the end of the 1st month) ([2]; 40° C., relative humidity 75%) | Appearance (At the end of the 1st month) ([2]; 40° C., relative humidity 75%) | Content, % (At the end of the 2nd month) ([2]; 40° C., relative humidity 75%) | Appearance (At the end of the 3rd month) [2, 4] | Content, % (At the end of the 3rd month) [2, 4] | Content, % (Day 0) [2] | Stability compared with amorphous powder (from appearance and moisture absorption) ([1]; 25° C., relative humidity 75%, 5 days, conclusion from Tables 2 and 3) | Moisture absorption rate, % [1, 5] | Weight gain after moisture absorption ([1]; 25° C., relative humidity 75%) | Appearance before experiment [1] | Change of LNTII content during the stability experiment [2, 4] | Change of appearance/color during the stability experiment [2, 4] |
| --- | --- | --- | --- | --- | --- | --- | --- | --- | --- | --- | --- | --- | --- |
| CC(=O)NC1C(O)[C@H](O)C(CO)O[C@H]1OC1C(O)[C@H](O[C@@H]2C(CO)OC(O)C(O)C2O)OC(CO)[C@@H]1O (single isomer, unassigned) [Crystalline form B in Example 1, Lacto-N-triose II] | 14.02% | 96.81% | Off-white | 96.78% | Off-white | 96.76% | 96.8% |  |  |  |  |  |  |
| CC(=O)NC1C(O)[C@H](O)C(CO)O[C@H]1OC1C(O)[C@H](O[C@@H]2C(CO)OC(O)C(O)C2O)OC(CO)[C@@H]1O (single isomer, unassigned) [Crystalline form B in Example 2, Lacto-N-triose II] | 14.36% | 96.44% | Off-white | 96.42% | Off-white | 96.38% | 96.5% |  |  |  |  |  |  |
| CC(=O)NC1C(O)[C@H](O)C(CO)O[C@H]1OC1C(O)[C@H](O[C@@H]2C(CO)OC(O)C(O)C2O)OC(CO)[C@@H]1O (single isomer, unassigned) [Crystalline form B in Example 3, Lacto-N-triose II] | 13.57% | 96.92% | Off-white | 96.93% | Off-white | 96.84% | 96.9% |  |  |  |  |  |  |
| CC(=O)NC1C(O)[C@H](O)C(CO)O[C@H]1OC1C(O)[C@H](O[C@@H]2C(CO)OC(O)C(O)C2O)OC(CO)[C@@H]1O (single isomer, unassigned) [Crystalline form B in Example 4, Lacto-N-triose II] | 13.81% | 96.13% | Off-white | 96.06% | Off-white | 96.07% | 96.1% |  |  |  |  |  |  |

Further lines, results first:

| Moisture absorption rate, % [1, 3] | Content, % (At the end of the 1st month) ([2]; 40° C., relative humidity 75%) | Appearance (At the end of the 1st month) ([2]; 40° C., relative humidity 75%) | Content, % (At the end of the 2nd month) ([2]; 40° C., relative humidity 75%) | Appearance (At the end of the 3rd month) [2, 4] | Content, % (At the end of the 3rd month) [2, 4] | Content, % (Day 0) [2] | Stability compared with amorphous powder (from appearance and moisture absorption) ([1]; 25° C., relative humidity 75%, 5 days, conclusion from Tables 2 and 3) | Moisture absorption rate, % [1, 5] | Weight gain after moisture absorption ([1]; 25° C., relative humidity 75%) | Appearance before experiment [1] | Change of LNTII content during the stability experiment [2, 4] | Change of appearance/color during the stability experiment [2, 4] | SMILES |
| --- | --- | --- | --- | --- | --- | --- | --- | --- | --- | --- | --- | --- | --- |
| 13.79% | 93.56% | Off-white | 93.48% | Off-white | 93.34% | 93.4% |  |  |  |  |  |  | CC(=O)NC1C(O)[C@H](O)C(CO)O[C@H]1OC1C(O)[C@H](O[C@@H]2C(CO)OC(O)C(O)C2O)OC(CO)[C@@H]1O (single isomer, unassigned) [Crystalline form B in Example 5, Lacto-N-triose II] |
| 13.32% | 92.43% | Off-white | 92.39% | Off-white | 92.31% | 92.4% |  |  |  |  |  |  | CC(=O)NC1C(O)[C@H](O)C(CO)O[C@H]1OC1C(O)[C@H](O[C@@H]2C(CO)OC(O)C(O)C2O)OC(CO)[C@@H]1O (single isomer, unassigned) [Crystalline form B in Example 6, Lacto-N-triose II] |
| 13.04% | 93.77% | Off-white | 93.81% | Off-white | 93.75% | 93.8% |  |  |  |  |  |  | CC(=O)NC1C(O)[C@H](O)C(CO)O[C@H]1OC1C(O)[C@H](O[C@@H]2C(CO)OC(O)C(O)C2O)OC(CO)[C@@H]1O (single isomer, unassigned) [Crystalline form B in Example 7, Lacto-N-triose II] |
| 13.61% | 96.48% | Off-white | 96.49% | Off-white | 96.46% | 96.5% |  |  |  |  |  |  | CC(=O)NC1C(O)[C@H](O)C(CO)O[C@H]1OC1C(O)[C@H](O[C@@H]2C(CO)OC(O)C(O)C2O)OC(CO)[C@@H]1O (single isomer, unassigned) [Crystalline form B in Example 8, Lacto-N-triose II] |
|  |  |  |  |  |  |  | better than that of amorphous powder | 16.16% | 0.1617 | Off-white |  |  | CC(=O)NC1C(O)[C@H](O)C(CO)O[C@H]1OC1C(O)[C@H](O[C@@H]2C(CO)OC(O)C(O)C2O)OC(CO)[C@@H]1O (stereo partly shown) [Crystalline form B of LNTII, Lacto-N-triose II] |
|  | 91.01% | Off-white | 90.86% |  | 90.01% | 91.24% |  | 29.47% | 0.2951 | Off-white powder | showed a decreasing trend | gradually changed to faint yellow | CC(=O)NC1C(O)[C@H](O)C(CO)O[C@H]1OC1C(O)[C@H](O[C@@H]2C(CO)OC(O)C(O)C2O)OC(CO)[C@@H]1O (stereo partly shown) [LNTII amorphous powder, Lacto-N-triose II, reference compound] |
